In ChEMBL document CHEMBL1152349, “Optimization of 2-piperidin-4-yl-acetamides as melanin-concentrating hormone receptor 1 (MCH-R1) antagonists: Designing out hERG inhibition” (Bioorg Med Chem Lett, 2009):

Tests used:
[1] = biological target: T1, Melanin-concentrating hormone receptor 1 (Homo sapiens, UniProt Q99705); experiment: Displacement of [125I]MCH from human MCHR1 expressed in HEK293 cells; format: cell-based
[2] = test system: Mus musculus; experiment: Antiobesity activity in DIO mouse model assessed as reduction in weight at 50 umol/kg, po once daily after 21 days; format: functional; parameters: scale not given: the % may be the effect or the level left
[3] = biological target: T1, Melanin-concentrating hormone receptor 1; experiment: Antagonist activity at human MCHR1 expressed in HEK293 cells assessed as [35S]GTPgammaS accumulation; format: functional, cell-based
[4] = Dissociation constant, pKa by pressure assisted capillary electrophoresis; format: physicochemical
[5] = biological target: T2, Voltage-gated inwardly rectifying potassium channel KCNH2 (Homo sapiens, UniProt Q12809); experiment: Inhibition of human ERG expressed in CHO cells by patch clamp assay; format: cell-based
[6] = biological target: Sodium channel protein type 5 subunit alpha (Homo sapiens, UniProt Q14524); experiment: Inhibition of NaV1.5 sodium channel expressed in CHO cells by patch clamp assay; format: cell-based
[7] = biological target: Melanin-concentrating hormone receptor 2 (Homo sapiens, UniProt Q969V1); experiment: Displacement of [125I]MCH from human MCHR2 expressed in CHO cells; format: cell-based
[8] = test system: Liver microsomes; experiment: Intrinsic clearance in human liver microsomes; format: ADME, Microsome
[9] = biological target: T2, Voltage-gated inwardly rectifying potassium channel KCNH2; experiment: Inhibition of human ERG activation expressed in CHO cells by rubidium efflux assay; format: cell-based

T1 sequence (Q99705 whole entry): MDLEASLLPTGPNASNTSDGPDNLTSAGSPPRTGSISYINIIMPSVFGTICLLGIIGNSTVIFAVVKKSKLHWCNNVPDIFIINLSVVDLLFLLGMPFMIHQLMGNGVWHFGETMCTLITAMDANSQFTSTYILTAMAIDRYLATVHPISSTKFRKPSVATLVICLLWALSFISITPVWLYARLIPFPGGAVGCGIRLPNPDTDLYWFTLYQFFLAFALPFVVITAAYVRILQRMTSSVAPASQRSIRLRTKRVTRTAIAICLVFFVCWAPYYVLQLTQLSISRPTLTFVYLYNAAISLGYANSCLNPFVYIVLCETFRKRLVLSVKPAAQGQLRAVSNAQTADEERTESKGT
T2 sequence (Q12809 whole entry): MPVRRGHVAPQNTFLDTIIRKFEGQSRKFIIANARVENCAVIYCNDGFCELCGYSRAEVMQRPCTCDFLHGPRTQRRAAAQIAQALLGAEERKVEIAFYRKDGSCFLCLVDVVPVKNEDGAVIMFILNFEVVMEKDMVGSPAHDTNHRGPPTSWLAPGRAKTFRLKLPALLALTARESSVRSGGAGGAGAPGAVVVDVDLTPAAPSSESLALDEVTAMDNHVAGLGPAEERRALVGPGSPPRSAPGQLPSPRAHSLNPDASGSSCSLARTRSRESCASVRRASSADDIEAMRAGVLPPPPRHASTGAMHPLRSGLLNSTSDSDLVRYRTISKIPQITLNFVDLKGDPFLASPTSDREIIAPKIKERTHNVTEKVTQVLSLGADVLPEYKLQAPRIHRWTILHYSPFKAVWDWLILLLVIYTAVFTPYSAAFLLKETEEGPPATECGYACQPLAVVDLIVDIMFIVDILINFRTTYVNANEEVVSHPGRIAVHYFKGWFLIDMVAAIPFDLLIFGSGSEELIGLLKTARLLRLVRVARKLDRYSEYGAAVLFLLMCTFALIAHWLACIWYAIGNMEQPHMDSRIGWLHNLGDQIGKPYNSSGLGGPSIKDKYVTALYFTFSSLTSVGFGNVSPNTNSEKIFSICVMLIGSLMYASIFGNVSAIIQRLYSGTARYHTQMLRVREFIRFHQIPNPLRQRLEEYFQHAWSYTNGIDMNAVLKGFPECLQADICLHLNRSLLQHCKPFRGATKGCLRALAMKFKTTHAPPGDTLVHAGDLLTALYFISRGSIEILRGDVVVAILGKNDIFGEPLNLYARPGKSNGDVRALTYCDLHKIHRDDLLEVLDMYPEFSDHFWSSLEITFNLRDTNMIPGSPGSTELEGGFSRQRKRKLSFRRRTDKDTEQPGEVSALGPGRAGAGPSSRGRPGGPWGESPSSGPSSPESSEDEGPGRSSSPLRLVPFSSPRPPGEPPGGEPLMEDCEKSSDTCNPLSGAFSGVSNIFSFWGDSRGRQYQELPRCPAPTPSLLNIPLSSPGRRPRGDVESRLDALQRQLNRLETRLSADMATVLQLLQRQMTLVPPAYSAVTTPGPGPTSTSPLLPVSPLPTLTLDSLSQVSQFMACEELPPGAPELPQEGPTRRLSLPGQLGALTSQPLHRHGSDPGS
Melanin-concentrating hormone receptor 2, sequence (Q969V1 whole entry): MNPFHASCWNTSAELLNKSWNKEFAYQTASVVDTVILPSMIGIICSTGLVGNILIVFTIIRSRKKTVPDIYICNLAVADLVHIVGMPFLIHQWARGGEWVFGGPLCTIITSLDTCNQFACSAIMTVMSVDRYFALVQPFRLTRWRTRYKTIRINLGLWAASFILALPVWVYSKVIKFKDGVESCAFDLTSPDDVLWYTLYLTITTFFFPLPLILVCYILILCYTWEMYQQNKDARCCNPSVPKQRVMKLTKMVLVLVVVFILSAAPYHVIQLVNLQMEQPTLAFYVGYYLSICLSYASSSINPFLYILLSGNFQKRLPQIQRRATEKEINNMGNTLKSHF
Sodium channel protein type 5 subunit alpha, sequence (Q14524 whole entry): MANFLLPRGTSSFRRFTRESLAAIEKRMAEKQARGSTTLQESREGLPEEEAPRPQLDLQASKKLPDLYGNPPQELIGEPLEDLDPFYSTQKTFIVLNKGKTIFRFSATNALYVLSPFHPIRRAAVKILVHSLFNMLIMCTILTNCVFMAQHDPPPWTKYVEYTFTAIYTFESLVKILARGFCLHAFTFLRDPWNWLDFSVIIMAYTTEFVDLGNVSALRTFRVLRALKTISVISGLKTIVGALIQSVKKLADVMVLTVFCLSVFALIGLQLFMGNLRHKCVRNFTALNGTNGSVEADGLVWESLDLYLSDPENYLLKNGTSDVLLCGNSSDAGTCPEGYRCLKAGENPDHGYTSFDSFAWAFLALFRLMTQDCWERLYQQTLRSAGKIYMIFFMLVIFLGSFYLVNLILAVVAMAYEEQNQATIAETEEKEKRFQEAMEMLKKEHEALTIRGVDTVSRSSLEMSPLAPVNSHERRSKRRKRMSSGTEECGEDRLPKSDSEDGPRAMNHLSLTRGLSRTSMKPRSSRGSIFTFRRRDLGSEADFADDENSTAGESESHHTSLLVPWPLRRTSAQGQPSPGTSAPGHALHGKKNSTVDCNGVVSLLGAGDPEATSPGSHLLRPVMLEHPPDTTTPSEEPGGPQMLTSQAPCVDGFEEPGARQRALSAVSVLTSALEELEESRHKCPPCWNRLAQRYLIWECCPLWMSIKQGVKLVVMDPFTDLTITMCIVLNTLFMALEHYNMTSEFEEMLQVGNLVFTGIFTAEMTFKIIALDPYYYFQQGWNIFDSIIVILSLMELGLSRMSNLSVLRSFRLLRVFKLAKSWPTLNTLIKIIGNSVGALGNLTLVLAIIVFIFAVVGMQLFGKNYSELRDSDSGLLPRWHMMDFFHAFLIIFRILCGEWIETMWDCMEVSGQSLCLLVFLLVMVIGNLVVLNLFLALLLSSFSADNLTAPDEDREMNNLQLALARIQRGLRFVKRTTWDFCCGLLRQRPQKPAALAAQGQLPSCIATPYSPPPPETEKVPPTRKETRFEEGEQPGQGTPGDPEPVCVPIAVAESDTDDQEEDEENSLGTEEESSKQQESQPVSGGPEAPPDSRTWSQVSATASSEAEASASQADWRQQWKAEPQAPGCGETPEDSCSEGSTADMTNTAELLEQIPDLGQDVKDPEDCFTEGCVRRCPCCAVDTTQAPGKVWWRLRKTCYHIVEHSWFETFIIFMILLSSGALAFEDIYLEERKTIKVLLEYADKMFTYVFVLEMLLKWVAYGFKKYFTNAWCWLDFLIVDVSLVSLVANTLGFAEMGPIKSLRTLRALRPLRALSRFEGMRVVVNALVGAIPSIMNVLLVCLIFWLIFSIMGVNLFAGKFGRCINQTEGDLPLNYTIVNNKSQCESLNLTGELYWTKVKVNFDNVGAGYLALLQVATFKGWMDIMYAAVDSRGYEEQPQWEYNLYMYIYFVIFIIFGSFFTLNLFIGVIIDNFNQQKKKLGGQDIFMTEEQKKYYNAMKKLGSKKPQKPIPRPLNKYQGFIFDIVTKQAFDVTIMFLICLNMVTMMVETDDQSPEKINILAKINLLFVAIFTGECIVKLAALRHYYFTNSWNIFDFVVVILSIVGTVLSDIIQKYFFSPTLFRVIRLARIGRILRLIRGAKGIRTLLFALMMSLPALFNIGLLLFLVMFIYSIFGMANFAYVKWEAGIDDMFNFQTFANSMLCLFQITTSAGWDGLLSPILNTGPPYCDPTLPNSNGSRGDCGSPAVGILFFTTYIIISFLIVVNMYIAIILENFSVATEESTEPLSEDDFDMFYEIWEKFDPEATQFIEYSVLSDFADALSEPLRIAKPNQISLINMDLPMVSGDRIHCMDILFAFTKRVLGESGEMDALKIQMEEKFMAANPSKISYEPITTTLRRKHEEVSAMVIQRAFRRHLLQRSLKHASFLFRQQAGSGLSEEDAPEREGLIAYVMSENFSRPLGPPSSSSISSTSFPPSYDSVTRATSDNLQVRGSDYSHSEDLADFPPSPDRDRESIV

IC50 [1] [µM] | Structure (SMILES) | IC50 [5] [µM] | further results
0.013 | O=C(CC1CCN(Cc2ccn(-c3ccc(C(F)(F)F)cn3)c2)CC1)NC(c1ccc(F)cc1)c1ccc(F)cc1 |  | Activity [2]: 18.2%; IC50 [3]: 0.017 µM; pKa [4]: 9.1
0.021 | O=C(CC1CCN(Cc2ccn(-c3ccc(C(F)(F)F)cc3)c2)CC1)NC(c1ccc(F)cc1)c1ccc[n+]([O-])c1 (stereo not given) | > 31.6 | 
0.006 | O=C(CC1CCN(Cc2ccn(-c3ccc(C(F)(F)F)cc3)c2)CC1)NC(c1ccc(F)cc1)c1c[nH]c(=O)c(Cl)c1 (stereo not given) | > 31.6 | IC50 [3]: 0.021 µM; IC50 [6]: > 31.6 µM; IC50 [7]: 4.6 µM; clearance [8]: < 15 µL/min/mg
0.055 | O=C(CN1CCN(Cc2ccn(-c3ccc(C(F)(F)F)cn3)c2)CC1)NC(c1ccc(F)cc1)c1ccc(F)cc1 | 0.8 | pKa [4]: 6.5
0.004 | O=C(CC1CCN(Cc2ccn(-c3ccc(C(F)(F)F)cc3)c2)CC1)N(CCCO)Cc1ccc(F)cc1 | 0.63 | 
0.15 | COCC(O)CN(Cc1ccc(F)cc1)C(=O)CC1CCN(Cc2ccc(-c3ccc(Cl)cc3)o2)CC1 (stereo not given) | 1.09 | 
0.005 | CCCCC(NC(=O)CC1CCN(Cc2ccn(-c3ccc(C(F)(F)F)cc3)c2)CC1)c1ccc(OC)nc1 (stereo not given) | 1 | 
0.03 | O=C(NCc1ccc(O)cc1Cl)C1CCN(Cc2ccn(-c3ccc(C(F)(F)F)cc3)c2)CC1 |  | 
0.313 | Cn1cccc1CNC(=O)CC1CCN(Cc2ccn(-c3ccc(C(F)(F)F)cc3)c2)CC1 |  | 
0.142 | CN(CCC(=O)N1CCCC1)C(=O)CC1CCN(Cc2ccn(-c3ccc(C(F)(F)F)cc3)c2)CC1 |  | 
0.017 | O=C(CC1CCN(Cc2ccn(-c3ccc(C(F)(F)F)cc3)c2)CC1)NC(c1ccncc1)c1ccc(Cl)cc1 (stereo not given) |  | 
0.002 | COc1ccc(C(NC(=O)CC2CCN(Cc3ccn(-c4ccc(C(F)(F)F)cc4)c3)CC2)c2ccc(F)cc2)cn1 (stereo not given) | 1.75 | 
0.002 | O=C(CC1CCN(Cc2ccn(-c3ccc(C(F)(F)F)cc3)c2)CC1)NC(c1ccc(F)cc1)c1ccc(=O)[nH]c1 (stereo not given) | > 31.6 | IC50 [3]: 0.025 µM
0.008 | O=C(NCc1ccc(Cl)cc1Cl)N1CCN(Cc2ccn(-c3ccc(C(F)(F)F)cc3)c2)CC1 |  | IC50 [9]: 1.6 µM; pKa [4]: 6.2
0.815 | O=C(CC1CCN(Cc2ccc(-c3ccc(Cl)cc3)o2)CC1)NCC(O)C(F)(F)F (stereo not given) | 1.02 | 
0.04 | O=C(NCC1(O)CCCCC1)C1CCN(Cc2ccn(-c3ccc(C(F)(F)F)cc3)c2)CC1 | 11.7 | 
0.039 | O=C(NC1CCN(Cc2ccn(-c3ccc(C(F)(F)F)cc3)c2)CC1)NC(c1ccccc1)c1ccccc1 | 3.8 | pKa [4]: 9.2

IC50 [1] [µM] | Structure (SMILES) | IC50 [5] [µM] | further results
0.022 | O=C(NCc1ccc(Cl)cc1O)C1CCN(Cc2ccn(-c3ccc(C(F)(F)F)cc3)c2)CC1 | 1.55 | 
0.066 | O=C(C1CCCCN1C(=O)CC1CCN(Cc2ccn(-c3ccc(C(F)(F)F)cc3)c2)CC1)N1CCCC1 (stereo not given) |  | 
0.017 | O=C(CC1CCN(Cc2ccn(-c3ccc(C(F)(F)F)cc3)c2)CC1)NC(c1ccccc1)c1cnc[nH]1 (stereo not given) | 11.4 | 
0.444 | O=C(NCc1ccc(Cl)cc1Cl)C1CCN(Cc2ccn(-c3ccc(C(F)(F)F)cn3)c2)CC1 |  | IC50 [9]: 3.5 µM; pKa [4]: 8.3
0.339 | O=C(NCCc1ccccn1)C1CCN(Cc2ccn(-c3ccc(C(F)(F)F)cc3)c2)CC1 | 10 | 
0.037 | CCN(CC)C(=O)C1CCCN(C(=O)CC2CCN(Cc3ccn(-c4ccc(C(F)(F)F)cc4)c3)CC2)C1 (stereo not given) | 16 | 
0.065 | Cc1nccn1CC(NC(=O)CC1CCN(Cc2ccn(-c3ccc(C(F)(F)F)cc3)c2)CC1)c1ccccc1 (stereo not given) | 26.6 | 
0.041 | O=C(CC1CCN(Cc2ccn(-c3ccc(C(F)(F)F)cc3)c2)CC1)NC(c1ccccc1)c1ccccn1 (stereo not given) | 2.3 | 
0.144 | O=C(NCc1c(O)cc(Cl)cc1Cl)C1CCN(Cc2ccn(-c3ccc(C(F)(F)F)cc3)c2)CC1 |  | 
0.001 | CCCCC(NC(=O)CC1CCN(Cc2ccn(-c3ccc(C(F)(F)F)cc3)c2)CC1)c1ccc(=O)[nH]c1 (stereo not given) |  | IC50 [3]: 0.019 µM
0.417 | O=C(CC1CCN(Cc2ccn(-c3ccc(C(F)(F)F)cc3)c2)CC1)N1CCN(C(=O)N2CCCC2)CC1 | 14 | 
0.173 | O=C(CC1CCN(Cc2ccn(-c3ccc(C(F)(F)F)cc3)c2)CC1)N1CCOC(C(=O)N2CCCC2)C1 (stereo not given) |  | 
0.071 | O=C(CC1CCN(Cc2ccn(-c3ccc(C(F)(F)F)cc3)c2)CC1)N1CCCC(C(=O)N2CCCC2)C1 (stereo not given) | 31 | 
0.067 | CC(NC(=O)CC1CCN(Cc2ccn(-c3ccc(C(F)(F)F)cc3)c2)CC1)c1ccc(=O)[nH]c1 (stereo not given) | > 31.6 | 
0.597 | O=C(CC1CCN(Cc2ccc(-c3ccc(Cl)cc3)o2)CC1)N1CCCC(CO)C1 (stereo not given) | 2.34 | 
0.028 | O=C(CC1CCN(Cc2ccn(-c3ccc(C(F)(F)F)cc3)c2)CC1)NC(c1ccc(F)cc1)c1cccnc1 (stereo not given) | 2.17 | 
